{"source": "patent US9645154B2", "about": "“Method for detecting cancer cell” (ARKRAY, Inc., priority 2010, dated 2017)", "test_system": "human gastric cancer cells (SNU-1)", "assay": "Labeled sugar incorporation, fluorescence microscopy image analysis (positive rate)", "type": "cell-based", "settings": "threshold value 490", "description": "In accordance with the conventional method, cultured human fibrosarcoma cell line HT1080 (DS Pharma Biomedical Co., Ltd.) was harvested with trypsin (Invitrogen). The human gastric cancer cell line SNU-1 (ATCC), which is a suspension cell line, was directly harvested without any trypsin treatment. The cell suspension of the harvested cancer cells was centrifuged, and the supernatant was removed. The cells were resuspended with Dulbecco's PBS (−) (Nissui Pharmaceutical Co., Ltd.) and centrifuged, and the supernatant was removed again.\nThe number of the cells was counted for each cell line using a hemacytometer in accordance with the conventional method, and then 10^5 to 10^6 cells per sample (cell suspension) was aliquoted. Each of the sample was centrifuged to remove the supernatant. Subsequently, 2-NBDG (Wako Pure Chemical Industries, Ltd.; at the final concentration given in Table 3 or 4) dissolved in Dulbecco's PBS (−) was added thereto, and the cells were suspended well. […] The image was captured with a fluorescence microscope (Nikon Corp.) using B-2A filter combination (Nikon Corp.). […] EX (excitation wavelength): 475±15 nm, DM: 505 nm or longer, BA (fluorescence wavelength) 520 nm or longer.\nThe acquired images were analyzed using an image analysis software NIS-ELEMENTS (trade name, Nikon Corp.) to evaluate the fluorescence intensity of the cell. […]"}
{"molecule": "O=[N+]([O-])c1ccc(N[C@H]2C(O)O[C@H](CO)[C@@H](O)[C@@H]2O)c2nonc12", "note": "(stereo partly drawn) [2-NBDG, 2-[N-(7-nitrobenz-2-oxa-1,3-diazol-4-yl)amino]-2-deoxy-D-glucose]", "values": [{"measurement": "Positive rate (Cancer cells)", "setting": "hemolyzed, 10 mM, 5 min, 23° C.", "result": 50.0, "unit": "%"}, {"measurement": "Positive rate (Cancer cells)", "setting": "single, Glucose conc.: 1 mM, Temp.: 37° C., Time: 30 min", "result": 50.0, "unit": "%"}]}
